In patent publication US8974823B2, “Solid compositions of low-solubility drugs and poloxamers” (Bend Research, Inc., priority 2003, dated 2015):
Where a name gives a salt, the structure may show the parent alone.

Key:
[1] = glass transition temperature (Tg) of the drug; type: physicochemical; conditions: for Tg: Table B, unless noted Tg measured at less than 10% RH
Method: In a first aspect, the invention comprises a solid composition comprising a plurality of particles. The particles comprise a low-solubility drug and a poloxamer. The drug is in intimate contact with the poloxamer in the particles. Collectively, the drug and poloxamer constitute at least 50 wt % of the particles. At least a substantial portion of the drug in the composition is amorphous. The Tg of the drug is at least 50° C. Unless otherwise noted, as used herein the Tg refers to the Tg measured at less than 10% RH.
Such Tg values may represent that of drug dispersed in the amorphous portions of the poloxamer or the Tg of drug-rich phases or domains. […] The Tg of the drug may be at least about 60° C., at least about 70° C., or even at least about 80° C. The Tg of a drug can be determined using standard analytical techniques well known in the art, including by a dynamic mechanical analyzer (DMA), a dilatometer, a dielectric analyzer, and by differential scanning calorimetry (DSC).

Log P of the drug = conditions: for logP: octanol/water, Log P
Excerpt: A common measure of hydrophobicity is Log P, defined as the base 10 logarithm of the ratio of the drug solubility in octanol to the drug solubility in water. Log P may be measured experimentally or calculated using methods known in the art.

[2] = in vitro dissolution test of Drug 2 compositions in Model Fasted Duodenal solution; type: physicochemical; conditions: for AUC / Drug 2 Concentration: MFD solution, 200 μg/mL if all dissolved; for Drug 2 Concentration: 37° C.
Method: (§1) The solid compositions of Examples 1-2 were evaluated in an in vitro dissolution test to ascertain concentration enhancement of Drug 1. A […] sample of each solid composition was added in duplicate to a microcentrifuge tube, so that the total concentration of Drug 1 would have been 2000 μg/mL if all of the drug had dissolved. The tubes were placed in a 37° C. temperature-controlled chamber, and 1.8 mL PBS containing 0.5 wt % sodium taurocholic acid and 1-palmitoyl-2-oleyl-sn-glycero-3-phosphocholine (NaTC/POPC, with a 4/1 weight ratio) at pH 6.5 and 290 mOsm/kg (simulating a Model Fasted Duodenal solution) was added to each respective tube. The samples were quickly mixed using a vortex mixer for about 60 seconds. The samples were centrifuged at 13,000 G at 37° C. for 1 minute. The resulting supernatant solution was then sampled and diluted 1:6 (by volume) with methanol and then analyzed by high-performance liquid chromatography (HPLC). The contents of each respective tube were mixed on a vortex mixer and allowed to stand undisturbed at 37° C. until the next sample was taken. Samples were collected at 4, 10, 20, 40, 90, and 1200 minutes.
Examples 3-4 were tested by in vitro dissolution tests to ascertain concentration enhancement of Drug 2 as in Examples 1-2, except that a sufficient amount of material was added to the Model Fasted Duodenal solution to obtain a drug concentration of 200 μg/mL if all of the drug dissolved. As a control (C2), crystalline Drug 2 alone was used.
The concentrations of drug obtained in these samples were used to determine the MDC90 and the AUC90 during the initial 90 minutes.

[3] = in vitro dissolution test of Drug 5 particles in MFD solution; type: physicochemical; conditions: dose 120 μg/mL; for Drug 5 Concentration: 37° C.
[4] = as above; type: physicochemical; conditions: dose 120 μg/mL; for AUC / Drug 5 Concentration: MFD solution; for Drug 5 Concentration: 37° C.
Method: as §1
The so-formed particles were tested in vitro to ascertain concentration enhancement of Drug 5 as in Examples 1-2 at a dose of 120 μg/mL. Control C9 consisted of amorphous Drug 5 alone.
The concentration of drug obtained in these samples were used to determine the Cmax90 during the initial 90 minutes.

[5] = in vitro dissolution test of Drug 3 compositions in PBS; type: physicochemical; conditions: for AUC / Drug 3 Concentration: 1000 μg/mL if all dissolved; for Drug 3 Concentration: 37° C.
[6] = Drug 5, MFDS, initial 90 minutes

Question: Which results are given for `CCOC(=O)N1c2ccc(C(F)(F)F)cc2[C@@H](N(Cc2cc(C(F)(F)F)cc(C(F)(F)F)c2)C(=O)OC)C[C@H]1CC` [Drug 4, [2R,4S] 4-[(3,5-bis-trifluoromethyl-benzyl)-methoxycarbonyl-amino]-2-ethyl-6-trifluoromethyl-3,4-dihydro-2H-quinoline-1-carboxylic acid ethyl ester]?
Answer: Tg,drug ([1]; at ambient RH): about 28 °C; Log P (Log P of the drug): 7.3; logP (Log P of the drug): ~7.5

Question: With `CCC(CC)Nc1cc(C)nc(Oc2c(C)cc(C)cc2C)c1C` [[3,6-dimethyl-2-(2,4,6-trimethyl-phenoxy)-pyridin-4-yl]-(1-ethyl-propyl)-amine] as the compound, how does the logP (Log P of the drug) read?
Answer: 7

Question: With `Cc1ncccc1CNC(=O)c1ccc2c(c1)CC[C@@H]1C[C@@](O)(CCC(F)(F)F)CC[C@@]21Cc1ccccc1` [Example C2, 2-phenanthrenecarboxamide,4b,5,6,7,8,8a,9,10-octahydro-7-hydroxy-N-[(2-methyl-3-pyridinyl)methyl]-4b-(phenylmethyl)-7-(3,3,3-trifluoropropyl)-, (4bS,7S,8aR)-] as the compound, how does the AUC90 ([2]; Drug 2, MFD, initial 90 minutes) read?
Answer: 100 µg·min/mL

Question: What about the Cmax90 ([2]; Drug 2, MFD, initial 90 minutes (MDC90 in the text)) of the same compound?
Answer: 1 µg/mL

Question: What about the AUC ([2]; Drug 2, time 0 min) of the same compound?
Answer: 0 µg·min/mL

Question: And the AUC ([2]; Drug 2, time 4 min)?
Answer: 0 µg·min/mL

Question: And the AUC ([2]; Drug 2, time 10 min)?
Answer: 0 µg·min/mL

Question: And the AUC ([2]; Drug 2, time 20 min)?
Answer: 0 µg·min/mL

Question: And the AUC ([2]; Drug 2, time 40 min)?
Answer: 0 µg·min/mL

Question: What about the AUC ([2]; Drug 2, time 90 min) of the same compound?
Answer: 100 µg·min/mL

Question: What about the AUC ([2]; Drug 2, time 1200 min) of the same compound?
Answer: 3400 µg·min/mL

Question: And the “Drug 2 Concentration” value ([2]; time 0 min)?
Answer: 0 µg/mL

Question: What about the “Drug 2 Concentration” value ([2]; time 4 min) of the same compound?
Answer: 1 µg/mL

Question: What about the “Drug 2 Concentration” value ([2]; time 10 min) of the same compound?
Answer: 1 µg/mL

Question: And the “Drug 2 Concentration” value ([2]; time 20 min)?
Answer: 0 µg/mL

Question: What about the “Drug 2 Concentration” value ([2]; time 40 min) of the same compound?
Answer: 0 µg/mL

Question: What about the “Drug 2 Concentration” value ([2]; time 90 min) of the same compound?
Answer: 1 µg/mL

Question: And the “Drug 2 Concentration” value ([2]; time 1200 min)?
Answer: 5 µg/mL

Question: With `Cc1ncccc1CNC(=O)c1ccc2c(c1)CC[C@@H]1C[C@@](O)(CCC(F)(F)F)CC[C@@]21Cc1ccccc1` [Drug 2, 2-phenanthrenecarboxamide,4b,5,6,7,8,8a,9,10-octahydro-7-hydroxy-N-[(2-methyl-3-pyridinyl)methyl]-4b-(phenylmethyl)-7-(3,3,3-trifluoropropyl)-, (4bS,7S,8aR)-] as the compound, how does the Tg [1] read?
Answer: 99 °C

Question: What about the “Tg,drug” value ([1]; at 0% RH) of the same compound?
Answer: 99 °C

Question: What about the “Log P” value (Log P of the drug) of the same compound?
Answer: about 6.2

Question: For `CC[C@@H]1C[C@H](N(Cc2cc(C(F)(F)F)cc(C(F)(F)F)c2)C(C)=O)c2cc(C(F)(F)F)ccc2N1C(=O)OC(C)C` [[2R,4S] 4-[acetyl-(3,5-bis-trifluoromethyl-benzyl)-amino]-2-ethyl-6-trifluoromethyl-3,4-dihydro-2H-quinoline-1-carboxylic acid isopropyl ester], which logP (Log P of the drug) is on record?
Answer: 6.9

Question: For `CCc1cc(Oc2cccc(N(Cc3cccc(OC(F)(F)C(F)F)c3)C[C@@H](O)C(F)(F)F)c2)ccc1Cl` [Example C9, (2R)-3-[[3-(4-chloro-3-ethylphenoxy)phenyl][[3-(1,1 ,2,2-tetrafluoroethoxy)phenyl]methyl]amino]-1,1,1-trifluoro-2-propanol], which AUC ([3]; Drug 5, time 0 min) is on record?
Answer: 0 µg·min/mL

Question: What about the AUC ([3]; Drug 5, time 3.5 min) of the same compound?
Answer: 5 µg·min/mL

Question: And the AUC ([3]; Drug 5, time 7.25 min)?
Answer: 17 µg·min/mL

Question: What about the AUC ([3]; Drug 5, time 11 min) of the same compound?
Answer: 34 µg·min/mL

Question: And the AUC ([3]; Drug 5, time 20 min)?
Answer: 96 µg·min/mL

Question: And the “Drug 5 Concentration” value ([3]; time 3.5 min)?
Answer: 2.8 µg/mL

Question: And the “Drug 5 Concentration” value ([3]; time 7.25 min)?
Answer: 3.8 µg/mL

Question: And the “Drug 5 Concentration” value ([3]; time 11 min)?
Answer: 5.3 µg/mL

Question: What about the “Drug 5 Concentration” value ([3]; time 20 min) of the same compound?
Answer: 8.4 µg/mL

Question: And the AUC90 [4, 6]?
Answer: 1,400 min * μg/mL

Question: What about the Cmax90 [4, 6] of the same compound?
Answer: 29 µg/mL

Question: And the AUC ([4]; Drug 5, time 40 min)?
Answer: 330 µg·min/mL

Question: What about the AUC ([4]; Drug 5, time 90 min) of the same compound?
Answer: 1,400 min * μg/mL

Question: What about the AUC ([4]; Drug 5, time 1200 min) of the same compound?
Answer: 60,700 min * μg/mL

Question: And the “Drug 5 Concentration” value ([4]; time 0 min)?
Answer: 0 µg/mL

Question: And the “Drug 5 Concentration” value ([4]; time 40 min)?
Answer: 15 µg/mL

Question: What about the “Drug 5 Concentration” value ([4]; time 90 min) of the same compound?
Answer: 29 µg/mL

Question: And the “Drug 5 Concentration” value ([4]; time 1200 min)?
Answer: 78 µg/mL

Question: For `CCc1cc(Oc2cccc(N(Cc3cccc(OC(F)(F)C(F)F)c3)C[C@@H](O)C(F)(F)F)c2)ccc1Cl` [Drug 5, (2R)-3-[[3-(4-chloro-3-ethylphenoxy)phenyl][[3-(1,1 ,2,2-tetrafluoroethoxy)phenyl]methyl]amino]-1,1,1-trifluoro-2-propanol], which “Tg,drug” value ([1]; RH not stated) is on record?
Answer: about −15 °C

Question: What about the “Log P” value (Log P of the drug) of the same compound?
Answer: 10.1

Question: And the logP (Log P of the drug)?
Answer: ~10

Question: Which results are given for `Cc1c(O)cccc1C(=O)N[C@@H](CSc1ccccc1)[C@H](O)CN1C[C@H]2CCCC[C@H]2C[C@H]1C(=O)NC(C)(C)C` [Example C3, nelfinavir mesylate]?
Answer: AUC90 ([5]; Drug 3, initial 90 minutes): 400 µg·min/mL; Cmax90 ([5]; Drug 3, initial 90 minutes (MDC90 in the text)): 6 µg/mL; AUC ([5]; Drug 3, time 0 min): 0 µg·min/mL; AUC ([5]; Drug 3, time 4 min): 0 µg·min/mL; AUC ([5]; Drug 3, time 10 min): 0 µg·min/mL; AUC ([5]; Drug 3, time 20 min): 100 µg·min/mL; AUC ([5]; Drug 3, time 40 min): 200 µg·min/mL; AUC ([5]; Drug 3, time 90 min): 400 µg·min/mL; AUC ([5]; Drug 3, time 1200 min): 5100 µg·min/mL; Drug 3 Concentration ([5]; time 0 min): 0 µg/mL; Drug 3 Concentration ([5]; time 4 min): 5 µg/mL; Drug 3 Concentration ([5]; time 10 min): 5 µg/mL; Drug 3 Concentration ([5]; time 20 min): 6 µg/mL; Drug 3 Concentration ([5]; time 40 min): 6 µg/mL; Drug 3 Concentration ([5]; time 90 min): 4 µg/mL; Drug 3 Concentration ([5]; time 1200 min): 5 µg/mL

Question: Which Tg [1] does the source give for `CCCc1nn(C)c2c(=O)[nH]c(-c3cc(S(=O)(=O)N4CCN(C)CC4)ccc3OCC)nc12` [1-[4-ethoxy-3-(6,7-dihydro-1-methyl-7-oxo-3-propyl-1H-pyrazolo[4,3-d]pyrimidin-5-yl)phenylsulphonyl]-4-methylpiperazine] here?
Answer: 135 °C

Question: And the logP (Log P of the drug)?
Answer: 7
